Patent US6608086B2, “Dihydropyridines and new uses thereof” (Synaptic Pharmaceutical Corporation, priority 1993, dated 2003)
Counter-ions that a name gives are not always drawn. Like-named read-outs stand apart in the source and are kept apart here.

What was measured:
[1] = molecular target: T1, α1A Human Adrenergic Receptor (Homo sapiens, UniProt P25100); experiment: Radioligand binding, [3H]prazosin, cloned human α1A adrenergic receptor; conditions: [3H]prazosin
T1 construct: The entire coding region of α1A (1719 bp); expressed in transfected cells
T1 sequence (P25100 1-572): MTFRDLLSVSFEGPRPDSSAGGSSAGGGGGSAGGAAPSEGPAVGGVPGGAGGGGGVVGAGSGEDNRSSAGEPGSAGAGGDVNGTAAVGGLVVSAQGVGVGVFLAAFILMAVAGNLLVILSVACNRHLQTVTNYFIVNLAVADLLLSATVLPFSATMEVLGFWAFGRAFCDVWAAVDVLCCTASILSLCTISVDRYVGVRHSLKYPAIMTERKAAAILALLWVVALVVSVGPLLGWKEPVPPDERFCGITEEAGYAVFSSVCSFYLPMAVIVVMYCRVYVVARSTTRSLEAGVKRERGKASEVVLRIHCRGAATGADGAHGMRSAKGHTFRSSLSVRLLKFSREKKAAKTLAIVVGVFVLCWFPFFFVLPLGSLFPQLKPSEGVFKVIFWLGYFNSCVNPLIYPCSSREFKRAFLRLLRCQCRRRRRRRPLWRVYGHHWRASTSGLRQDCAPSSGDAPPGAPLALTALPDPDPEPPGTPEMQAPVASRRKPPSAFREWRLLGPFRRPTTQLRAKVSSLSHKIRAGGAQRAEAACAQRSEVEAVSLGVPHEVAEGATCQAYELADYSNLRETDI
Protocol: (§1) The protocols for these experiments are given below.
(§2) These cell lines were prepared by transfecting the cloned cDNA or cloned genomic DNA or constructs containing both genomic DNA and cDNA encoding the human α-adrenergic receptors as follows:
α1A Human Adrenergic Receptor:
The cells were grown, in a controlled environment (37° C., 5% CO2), as monolayers in Dulbecco's modified Eagle's Medium (GIBCO, Grand Island, N.Y.) containing 25 mM glucose and supplemented with 10% bovine calf serum, 100 units/ml penicillin g, and 100 μg/ml streptomycin sulfate.
(§3) Radioligand Binding Assays:
(§4) Transfected cells from culture flasks were scraped into 5 ml of 5 mM Tris-HCl, 5 mM EDTA, pH 7.5, and lysed by sonication. The cell lysates were centrifuged at 1000 rpm for 5 min at 4° C., and the supernatant was centrifuged at 30,000× g for 20 min at 4° C. The pellet was suspended in 50 mM Tris-HCl, 1 mM MgCl2, and 0.1% ascorbic acid at pH 7.5. Binding of the α1 antagonist [^3H]prazosin (0.5 nM, specific activity 76.2 Ci/mmol) to membrane preparations of LM(tk−) cells was done in a final volume of 0.25 ml and incubated at 37° C. for 20 min. Nonspecific binding was determined in the presence of 10 μM phentolamine. The reaction was stopped by filtration through GF/B filters using a cell harvester.

[2] = molecular target: T2, α1B Human Adrenergic Receptor (Homo sapiens, UniProt P35368); experiment: Radioligand binding, [3H]prazosin, cloned human α1B adrenergic receptor; conditions: cloned human α1B receptor, LM(tk−) cell membranes, read-out: pKi alpha-1 1b (converted)
T2 construct: The entire coding region of α1B (1563 bp); expressed in transfected cells
T2 sequence (P35368 1-520): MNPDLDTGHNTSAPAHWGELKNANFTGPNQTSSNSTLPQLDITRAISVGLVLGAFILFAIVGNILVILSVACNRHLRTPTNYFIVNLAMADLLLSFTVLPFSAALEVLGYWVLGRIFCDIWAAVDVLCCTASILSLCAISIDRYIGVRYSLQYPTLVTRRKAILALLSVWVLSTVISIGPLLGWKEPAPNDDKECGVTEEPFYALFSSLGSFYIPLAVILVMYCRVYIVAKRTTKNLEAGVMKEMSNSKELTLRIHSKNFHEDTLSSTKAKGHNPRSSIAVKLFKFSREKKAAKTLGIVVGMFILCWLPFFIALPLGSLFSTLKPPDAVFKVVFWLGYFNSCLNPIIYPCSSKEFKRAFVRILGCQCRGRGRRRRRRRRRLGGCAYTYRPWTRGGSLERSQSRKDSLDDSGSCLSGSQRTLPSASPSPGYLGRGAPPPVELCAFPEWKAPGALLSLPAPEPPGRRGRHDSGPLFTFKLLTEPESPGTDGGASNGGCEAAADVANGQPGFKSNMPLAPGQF
Protocol: as §1, §2
α1B Human Adrenergic Receptor:
The construct involved ligating the full-length containing EcoRI brainstem cDNA fragment from λ ZapII into the expression vector. Stable cell lines were selected as described above.
as §3, §4

[3] = molecular target: T3, α1C Human Adrenergic Receptor (Homo sapiens, UniProt P35348); experiment: Radioligand binding, [3H]prazosin, cloned human α1C adrenergic receptor; conditions: cloned human α1C receptor, LM(tk−) cell membranes, read-out: pKi alpha-1 1c (converted)
T3 construct: The entire coding region of α1C (1401 bp); expressed in transfected cells
T3 sequence (P35348 1-466): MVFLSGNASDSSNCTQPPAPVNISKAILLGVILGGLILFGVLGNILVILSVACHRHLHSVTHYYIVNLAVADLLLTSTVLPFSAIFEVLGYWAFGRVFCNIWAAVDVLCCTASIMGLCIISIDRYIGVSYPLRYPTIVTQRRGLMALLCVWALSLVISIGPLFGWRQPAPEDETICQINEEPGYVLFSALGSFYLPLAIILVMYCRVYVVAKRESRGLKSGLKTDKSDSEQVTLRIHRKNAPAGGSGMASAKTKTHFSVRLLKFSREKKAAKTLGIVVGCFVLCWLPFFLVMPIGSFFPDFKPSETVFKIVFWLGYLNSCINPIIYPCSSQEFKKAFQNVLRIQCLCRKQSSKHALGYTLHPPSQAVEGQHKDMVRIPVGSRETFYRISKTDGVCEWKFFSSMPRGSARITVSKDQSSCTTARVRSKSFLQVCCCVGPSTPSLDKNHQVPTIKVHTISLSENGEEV
Protocol: as §1, §2
α1C Human Adrenergic Receptor:
The construct involved ligating three partial overlapping fragments: a 5′, 0.6 kb HincII genomic clone, a central 1.8 EcoRI hippocampal cDNA clone, and a 3′ 0.6Kb PstI genomic clone. The hippocampal cDNA fragment overlaps with the 5′ and 3′ genomic clones so that the HincII and PstI sites at the 5′ and 3′ ends of the cDNA clone, respectively, were utilized for ligation. This full-length clone was cloned into the KpnI site of the expression vector, using the 5′ and 3′ KpnI sites of the fragment, derived from vector (i.e., pBluescript) and 3′-untranslated sequences, respectively. Stable cell lines were selected as described above.
as §3, §4

[4] = cloned human α1A receptor, LM(tk−) cell membranes, read-out: pKi alpha-1 1a (converted)

Compound	melting point	Ki [1, 4]	Ki [2]	Ki [3]	Ki ([1]; cloned human receptor, LM(tk-) cell membranes, mean, read-out: PKi alpha-1 1a (converted))
CCC1=C(C(=O)NCCCN2CCC(c3ccccc3)(c3ccccc3)CC2)C(c2ccc(N)cc2)C(C(=O)OC)=C(C)N1 (centres unmarked) (as salt: salt) [Example 114, 4-(4-Aminophenyl)-2-ethyl-1,4-dihydro-5-methoxycarbonyl-6-methyl-3-(N-(3-(4,4-diphenylpiperidin-1-yl)propyl)carboxamido)-pyridine]	169 to 172 °C (dec.)				
COC(=O)C1=C(C)N(C)C(C)=C(C(=O)OCCCN2CCC(c3ccccc3)(c3ccccc3)CC2)C1c1ccc([N+](=O)[O-])cc1.Cl.O (centres unmarked) (hydrate or solvate) [Example 92, 1,4-Dihydro-5-methoxycarbonyl-1,2,6-trimethyl-4-(4-nitrophenyl)-3-[3-(4,4-diphenylpiperidin-1-yl)propoxy]carbonylpyridine hydrochloride hydrate]	127 to 128 °C				
CCC1=C(C(=O)OCCC#N)C(c2ccc([N+](=O)[O-])cc2)C(C(=O)NCCCN2CCC(c3ccccc3)(c3ccccc3)CC2)=C(COC)N1 (centres unmarked) (hydrate or solvate) [Example 135]	120 to 125 °C				
CCC1=C(C(N)=O)C(c2ccc([N+](=O)[O-])cc2)C(C(=O)NCCCN2CCC(C#N)(c3ccccc3)CC2)=C(CC)N1 (racemic) (as salt: hydrochloride) (hydrate or solvate) [(±)-102, 5-Carboxamido-3-{N-[(4-cyano-4-phenylpiperidin-1-ly)propyl]carboxamido-2,6-diethyl-1,4-dihydro-4-(4-nitrophenyl)pyridine hydrochloride hydrate]	230 °C (dec.)				
CCC1=C(C(=O)NC)C(c2ccc([N+](=O)[O-])cc2)C(C(=O)NCCCN2CCC(C(N)=O)(c3ccccc3)CC2)=C(CC)N1 (centres unmarked) [Example 110, 3-{N-[3-(4-Carboxamido-4-phenylpiperidin-1-yl)propyl]}carboxamido-2,6-diethyl-1,4-dihydro-5-(N-methyl)carboxamido-4-(4-nitrophenyl)pyridine]	124 °C (dec.)	17800 nM	31600 nM	1550 nM	
COC(=O)C1(c2ccccc2)CCN(CCCNC(=O)C2=C(C)NC(C)=C(C(=O)OCCC#N)C2c2ccc([N+](=O)[O-])cc2)CC1 (centres unmarked) [Example 203, 5-(2-Cyanoethoxycarbonyl)-1,4-dihydro-2,6-dimethyl-3-{N-[3-(4-methoxycarbonyl-4-phenylpiperidin-1-yl)propyl]}carbo xamido-4-(4-nitrophenyl)pyridine]	73 to 74 °C				759 nM

Continued, in another order:

melting point	Ki [1, 4]	Ki [2]	Ki [3]	Compound	Ki ([1]; cloned human receptor, LM(tk-) cell membranes, mean, read-out: PKi alpha-1 1a (converted))
160 °C				COC(=O)C1=C(C)NC(C)=C(C(=O)NCCCN2CCC(c3ccccc3)CC2)C1c1ccc([N+](=O)[O-])cc1 (racemic) (as salt: hydrochloride) (hydrate or solvate) [(±)-45, (±)-1,4-Dihydro-3-methoxycarbonyl-2,6-dimethyl-4-(4-nitrophenyl)-5-{N-[3-(4-phenylpiperidin-1-yl)propyl]}carboxamidopyridine hydrochloride hemihydrate]	
133 °C (dec.)	871 nM	1000 nM	5.89 nM	CCC1=C(C(=O)NC)C(c2ccc([N+](=O)[O-])cc2)C(C(=O)NCCCN2CCC(c3ccccc3)(c3ccc(OC)cc3)CC2)=C(CC)N1 (centres unmarked) [Example 107]	
128 °C (dec.)	851 nM	275 nM	66.1 nM	CCC1=C(C(=O)NC)C(c2ccc([N+](=O)[O-])cc2)C(C(=O)NCCCN2CCC(C(c3ccccc3)c3ccccc3)CC2)=C(CC)N1 (centres unmarked) [Example 109, 2,6-Diethyl-1,4-dihydro-5-(N-methyl) carboxamido-4-(4-nitrophenyl)-3-{-[13-(4-diphenylmethylpiperidin-1-yl)propyl]}carboxamidopyridine]	
172 °C (dec.)	1780 nM	955 nM	5.75 nM	CCNC(=O)C1=C(CC)NC(CC)=C(C(=O)NCCCN2CCC(c3ccccc3)(c3ccc(OC)cc3)CC2)C1c1ccc([N+](=O)[O-])cc1 (centres unmarked) [Example 111, 2,6-Diethyl-5-(N-ethyl)carboxamido-1,4-dihydro-3-{N-[3-(4-(4-methoxy)phenyl-4-phenylpiperidin-1-yl)propyl]}carboxamido-4-(4-nitrophenyl)pyridine]	
120 to 125 °C (dec.)	832 nM	407 nM	3.47 nM	CCC1=C(C(=O)O)C(c2ccc([N+](=O)[O-])cc2)C(C(=O)NCCCN2CCC(c3ccccc3)(c3ccccc3)CC2)=C(COC)N1 (centres unmarked) [Example 136, 6-Ethyl-1,4-dihydro-2-(methyloxy)methyl-4-(4-nitro)phenyl-3-(N-(3-(4,4-diphenylpiperidin-1-yl)propyl))carboxamidopyridine-5-carboxylic acid]	
112 to 113 °C				CCOC(=O)C1(c2ccccc2)CCN(CCCNC(=O)C2=C(C)NC(C)=C(C(=O)NC)C2c2ccc([N+](=O)[O-])cc2)CC1 (centres unmarked) [Example 188, 1,4-Dihydro-2,6-dimethyl-3-{N-[3-(4-ethoxycarbonyl-4-phenyl-piperidin-1-yl)propyl]}carboxamide-5-(N-methyl)carboxam ido-4-(4nitrophenyl)pyridine]	
117 to 118 °C				CCNC(=O)C1=C(C)NC(C)=C(C(=O)NCCCN2CCC(C(=O)OC)(c3ccccc3)CC2)C1c1ccc([N+](=O)[O-])cc1 (centres unmarked) [Example 205, 1,4-Dihydro-2,6-dimethyl-5-(N-ethyl)carboxamido-3-{N-[3-(4-methoxycarbonyl-4-phenylpiperidin-1-yl)propyl]}carboxamido-4-(4-nitrophenyl)pyridine]	
